23 compounds from patent US5859257A, “Isoxazole compounds as cyclooxygenase inhibitors” (G. D. Searle & Co., priority 1996, dated 1999) can be followed below.

One assay deals with rat paw edema. The experiment in a line: Rat Carrageenan Foot Pad Edema Test. Format: in vivo, Male Sprague-Dawley rats. The settings on record: oral, 3 h after carrageenan. The method, then:
Rat Carrageenan Foot Pad Edema Test
Male Sprague-Dawley rats were selected in each group so that the average body weight was as close as possible. Rats were fasted with free access to water for over sixteen hours prior to the test. […] One hour later a subplantar injection of 0.1 mL of 1% solution of carrageenan/sterile 0.9% saline was administered and the volume of the injected foot was measured with a displacement plethysmometer connected to a pressure transducer with a digital indicator. Three hours after the injection of the carrageenan, the volume of the foot was again measured.

For the next assay, the target named is COX-2. The experiment in a line: Evaluation of COX-2 activity in vitro (PGE2 ELISA, recombinant enzyme). The settings on record: arachidonic acid 10 μM, pH 8.0, pre-incubation 10-20 minutes. Format: biochemical, human or murine. The method, then:
The COX-2 inhibition activity of the compounds of this invention illustrated in the Examples was determined by the following methods.
(§1) a. Preparation of recombinant COX baculoviruses
(§2) Recombinant COX-1 and COX-2 were prepared as scribed by Gierse et al, [J. Biochem., 305, 479-84 (1995)]. […] Recombinant baculoviruses were isolated by transfecting 4 μg of baculovirus transfer vector DNA into SF9 insect cells (2×10^8) along with 200 ng of linearized baculovirus plasmid DNA by the calcium phosphate method. See M. D. Summers and G. E. Smith, A Manual of Methods for Baculovirus Vectors and Insect Cell Culture Procedures, Texas Agric. Exp. Station Bull. 1555 (1987). Recombinant viruses were purified by three rounds of plaque purification and high titer (10^7 -10^8 pfu/mL) stocks of virus were prepared. For large scale production, SF9 insect cells were infected in 10 liter fermentors (0.5×10^6 /mL) with the recombinant baculovirus stock such that the multiplicity of infection was 0.1. After 72 hours the cells were centrifuged and the cell pellet homogenized in Tris/Sucrose (50 mM: 25%, pH 8.0) containing 1% 3-[(3-cholamidopropyl)dimethylammonio]-1-propanesulfonate (CHAPS). The nomogenate was centrifuged at 10,000×G for 30 minutes, and the resultant supernatant was stored at -80° C. before being assayed for COX activity.
(§3) COX activity was assayed as PGE2 formed/μg protein/time using an ELISA to detect the prostaglandin released. CHAPS-solubilized insect cell membranes containing the appropriate COX enzyme were incubated in a potassium phosphate buffer (50 mM, pH 8.0) containing epinephrine, phenol, and heme with the addition of arachidonic acid (10 μM). […] Any reaction between the arachidonic acid and the enzyme was stopped after ten minutes at 37° C./room temperature by transferring 40 μl of reaction mix into 160 μl ELISA buffer and 25 μM indomethacin. The PGE2 formed was measured by standard ELISA technology (Cayman Chemical).

A further assay has as its target COX-1. Kind of assay: Evaluation of COX-1 activity in vitro (PGE2 ELISA, recombinant enzyme). In kind it is biochemical, human or murine. The settings on record: arachidonic acid 10 μM, pH 8.0, pre-incubation 10-20 minutes. As for the experimental part:
as §1, §2, §3
In general terms: An ELISA detects its analyte on a solid surface through an enzyme-linked reagent.

Assay [1] has as its system hyperalgesic foot withdrawal (rat). Kind of assay: Rat Carrageenan-induced Analgesia Test. Format: in vivo, Male Sprague-Dawley rats. The settings on record: oral, 3 h after carrageenan. The method, then:
Rat Carrageenan-induced Analgesia Test
Male Sprague-Dawley rats were treated as previously described for the Carrageenan Foot Pad Edema test. Three hours after the injection of the carrageenan, the rats were placed in a special plexiglass container with a transparent floor having a high intensity lamp as a radiant heat source, positionable under the floor. After an initial twenty minute period, thermal stimulation was begun on either the injected foot or on the contralateral uninjected foot. A photoelectric cell turned off the lamp and timer when light was interrupted by paw withdrawal. The time until the rat withdraws its foot was then measured. The withdrawal latency in seconds was determined for the control and drug-treated groups, and percent inhibition of the hyperalgesic foot withdrawal determined.

In the case of `CS(=O)(=O)c1ccc(-c2c(-c3ccccc3)noc2C(F)F)cc1` [Example 47, 5-Difluoromethyl-4-(4-methylsulfonylphenyl)-3-phenylisoxazole], in the assay with rat paw edema (@ 10 mg/kg body weight), the “RAT PAW EDEMA % Inhibition” value was found to be 24%. The IC50 at COX-2 was under 0.1 µM; at COX-1, over 100 µM.

`CC(C)(O)CCCc1onc(-c2ccccc2)c1-c1ccc(S(N)(=O)=O)cc1` [Example 57, 4-[5-(4-Hydroxy-4-methylpentyl)-3-phenylisoxazol-4-yl]benzenesulfonamide]: the “RAT PAW EDEMA % Inhibition” value with rat paw edema (*@ 30 mg/kg) was determined as 23%. Also, the IC50 is 0.1 µM on COX-2 and over 100 µM on COX-1. Moreover, in assay [1] (*@ 30 mg/kg), the “ANALGESIA % Inhibition” value came out at 5%.

On to `NS(=O)(=O)c1ccc(-c2c(-c3ccccc3)noc2CCO)cc1` [Example 66, 4-[5-(2-Hydroxyethyl)-3-phenylisoxazol-4-yl]benzenesulfonamide], for which the “RAT PAW EDEMA % Inhibition” value in the assay with rat paw edema (*@ 30 mg/kg) was determined as 43%. Also, the IC50 is under 0.1 µM at COX-2 and over 100 µM at COX-1. The “ANALGESIA % Inhibition” value in assay [1] (*@ 30 mg/kg) is 49%.

Take `NS(=O)(=O)c1ccc(-c2c(-c3ccccc3)noc2C(F)F)cc1` [Example 1j, 4-[5-difluoromethyl-3-phenylisoxazol-4-yl]benzenesulfonamide]: the “RAT PAW EDEMA % Inhibition” value with rat paw edema (@ 10 mg/kg body weight) was found to be 37%. Further, the values for the IC50 on COX-2 and on COX-1 were under 0.1 µM and over 100 µM, respectively. Further, the “ANALGESIA % Inhibition” value in assay [1] (@ 10 mg/kg body weight) amounted to 28%.

Turning to `NS(=O)(=O)c1ccc(-c2c(-c3ccccc3)noc2CO)cc1` [Example 10, 4-[5-Hydroxymethyl-3-phenylisoxazol-4-yl]benzenesulfonamide], the “RAT PAW EDEMA % Inhibition” value in the assay on rat paw edema (@ 10 mg/kg body weight) was found to be 57%. Besides, the concentration for half-maximal inhibition (IC50) on COX-1 was over 100 µM. The “ANALGESIA % Inhibition” value in assay [1] (@ 10 mg/kg body weight) is listed as 74%.

As to `CCc1noc(-c2ccccc2F)c1-c1ccc(S(N)(=O)=O)cc1` [Example 33, 4-[3-Ethyl-5-(2-fluorophenyl)isoxazol-4-yl]benzenesulfonamide], the values for the IC50 on COX-2 and on COX-1 were under 0.1 µM and 26 µM, respectively.

With `CC(C)Cc1onc(-c2ccccc2)c1-c1ccc(S(N)(=O)=O)cc1` [Example 1e, 4-[5-isobutyl-3-phenylisoxazol-4-yl]benzenesulfonamide], the IC50 on COX-2 is under 0.1 µM; at COX-1, 37.7 µM.

With `COc1ccc(-c2noc(C)c2-c2ccc(S(C)(=O)=O)cc2)cc1Cl` [Example 7, 3-(3-Chloro-4-methoxyphenyl)-5-methyl-4-[4-methylsulfonylphenyl]isoxazole], the IC50 was 86.7 µM at COX-2 and over 100 µM at COX-1.

In the case of `NS(=O)(=O)c1ccc(-c2c(-c3ccccc3)noc2COc2ccc(C(=O)O)cc2)cc1` [Example 51, 4-[[4-[4-(Aminosulfonyl)phenyl]-3-phenylisoxazol-5-yl]methoxy]benzoic acid], the IC50 on COX-2 is 19 µM; on COX-1, over 100 µM.

On to `NS(=O)(=O)c1ccc(-c2c(-c3ccccc3)noc2O)cc1` [Example 12, 4-[5-Hydroxy-3-phenylisoxazol-4-yl]benzenesulfonamide], for which the figures for the IC50 at COX-2 and at COX-1 were 2.5 µM and over 100 µM, respectively.

In the case of `NS(=O)(=O)c1ccc(-c2c(-c3ccccc3)noc2CC2CCCCC2)cc1` [Example 1h, 4-[5-cyclohexylmethyl-3-phenylisoxazol-4-yl]benzenesulfonamide], the IC50 on COX-2 is under 0.1 µM; on COX-1, 4.7 µM.

On to `NS(=O)(=O)c1ccc(-c2c(-c3cccc(F)c3)noc2CC(=O)O)cc1` [Example 55, [4-(4-Aminosulfonylphenyl)-3-(3-fluorophenyl)isoxazol-5-yl]acetic acid], for which the IC50 at COX-2 was under 0.1 µM; on COX-1, over 100 µM.

Take `NS(=O)(=O)c1ccc(-c2c(CO)noc2-c2ccccc2)cc1` [Example 25, 4-[3-Hydroxymethyl-5-phenylisoxazol-4-yl]benzenesulfonamide]: the IC50 at COX-2 was 79 µM; on COX-1, over 100 µM.

On to `Cc1onc(-c2ccc(Cl)c(Cl)c2)c1-c1ccc(S(N)(=O)=O)cc1` [Example 67, 4-[5-Methyl-3-(3,4-dichlorophenyl)isoxazol-4-yl]benzenesulfonamide], for which the IC50 on COX-2 stood at 0.3 µM; at COX-1, 36 µM.

With `NS(=O)(=O)c1ccc(-c2c(-c3ccccc3)noc2Cl)cc1` [Example 38, 4-[5-Chloro-3-phenylisoxazol-4-yl]benzenesulfonamide], the IC50 is under 0.1 µM at COX-2 and over 100 µM at COX-1.

As to `CCc1noc(-c2ccc(F)cc2)c1-c1ccc(S(N)(=O)=O)cc1` [Example 30, 4-[3-Ethyl-5-(4-fluorophenyl)isoxazol-4-yl]benzenesulfonamide], the figures for the IC50 at COX-2 and at COX-1 were under 0.1 µM and 41 µM, respectively.

For `Cc1onc(-c2ccccc2)c1-c1ccc(S(N)(=O)=O)cc1` [Example 1, 4-[5-Methyl-3-phenylisoxazol-4-yl]benzenesulfonamide], in the assay on rat paw edema (@ 10 mg/kg body weight), the “RAT PAW EDEMA % Inhibition” value is 29%. In assay [1] (@ 10 mg/kg body weight), the “ANALGESIA % Inhibition” value was 33%.

For the compound `Cc1noc(-c2cccc(Cl)c2)c1-c1ccc(S(N)(=O)=O)cc1` [Example 24, 4-[5-(3-Chlorophenyl)-3-methylisoxazol-4-yl]benzenesulfonamide], the IC50 at COX-2 was 8.4 µM; on COX-1, over 100 µM.

In the case of `C[S+]([O-])c1onc(-c2ccccc2)c1-c1ccc(S(N)(=O)=O)cc1` (stereo not drawn) [Example 59, 4-[5-Methylsulfinyl-3-phenylisoxazol-4-yl]benzenesulfonamide], the IC50 was under 0.1 µM on COX-2 and over 100 µM on COX-1.

On to `CCc1noc(-c2ccccc2)c1-c1ccc(S(N)(=O)=O)cc1` [Example 14, 4-[3-Ethyl-5-phenylisoxazol-4-yl]benzenesulfonamide], for which the IC50 was under 0.1 µM at COX-2 and 100 µM at COX-1. In addition, the “ANALGESIA % Inhibition” value in assay [1] (*@ 30 mg/kg) was 27%.

Turning to `Cc1onc(-c2ccccc2)c1-c1ccc(S(C)(=O)=O)cc1` [Example 5, 5-Methyl-4-[4-(methylsulfonyl)phenyl]-3-phenylisoxazole], the IC50 on COX-2 is 4 µM; at COX-1 it was over 100 µM.

As for `CC(C)(O)COCc1onc(-c2ccccc2)c1-c1ccc(S(N)(=O)=O)cc1` [Example 56, 4-[5-(2-Methyl-2-hydroxy-1-n-propyloxymethyl)-3-phenylisoxazol-4-yl]benzenesulfonamide], the “RAT PAW EDEMA % Inhibition” value in the assay with rat paw edema (*@ 30 mg/kg) turned out to be 29%. The IC50 on COX-2 is 0.2 µM; at COX-1, over 100 µM. In addition, the “ANALGESIA % Inhibition” value in assay [1] (*@ 30 mg/kg) is recorded as 27%.

As to `Cc1noc(-c2ccc(F)cc2)c1-c1ccc(S(N)(=O)=O)cc1` [Example 21, 4-[5-(4-fluorophenyl)-3-methylisoxazol-4-yl]benzenesulfonamide], the values for the IC50 at COX-2 and on COX-1 were 5.2 µM and over 100 µM, respectively.

A word on the IC50: it is the concentration that gives 50% inhibition.
